Patent publication US12552796B2, “EED inhibitor, and preparation method therefor and use thereof” (SHANGHAITECH UNIVERSITY, priority 2019, dated 2026)

Legend:
[1] = system: cellular H3K27 methylation; assay: Cellular H3K27 methylation assay (Western blot of H3K27me3 in HeLa cells); type: cell-based; details: Homo sapiens, 72 h; HeLa cells, 3 days, H3K27me3 level by Western blot; read-out: PD IC50
[2] = system: Karpas 422 human B-cell lymphoma cells; assay: Mouse Karpas422 CDX model, tumor growth; type: in vivo, balb/c nude mice; details: Karpas422 CDX mice; for tumor growth inhibition (TGI %), Day 11 after administration / tumor growth inhibition (TGI %), Day 21 after administration: intragastric; for effect on tumor growth (FIG. 1): different dosages
Description: Female balb/c nude mice aged 6-8 weeks were selected and housed under SPF conditions (i.e., 20-22° C.; 40-70% relative humidity) in individual ventilated cages at constant temperature and humidity. There were 5 or fewer animals in each cage. Animals had access to dry pelleted food sterilized by irradiation and sterile drinking water. Karpas 422 human B-cell lymphoma cells were cultured in RPMI-1640 (Gibco, product No. 31800022) containing 15% fetal bovine serum (FBS, Gibco, product No. 10099141) and 0.1% penicillin/streptomycin solution (P/S). The cells were cultured in a sterile incubator at a temperature of 37° C., a relative humidity of 95%, and 5% CO2. Karpas 422 cells cultured in vitro were maintained at a concentration between 0.5-2×10^6 cells/mL cells in suspension culture and passaged at a 1:3 dilution every 2-4 days. To establish the xenograft model, cells were collected, resuspended in PBS, mixed 1:1 by volume with Matrigel (BD) at a concentration of 5×10^7 cells/mL, and then injected subcutaneously into the right side of balb/c nude mice (Vital River) with 5×10^6 cells per animal. When tumors grew to about 150 mm^3, mice were divided into groups with 6 mice in each group. The mice were administered intragastrically, and the tumor size and mouse body weight were measured twice a week. The two largest diameters of the transplanted tumor, width (W) and length (L), were manually measured with a vernier caliper, and the tumor volume was estimated using the formula: 0.5×L×W^2. After the assay, the mice were euthanized.
The assay compounds were prepared as a suspension in pure water containing 0.5% HPMC+0.5% Tween 80 as a solvent. The dosing volume was 10 mL/kg.
In this study, changes in mouse tumor volume and relative changes in mouse body weight were assayed, and the results were shown in FIGS. 1 and 2.

[3] = Pharmacokinetic study in rats; type: in vivo, SD rats; details: rat; for AUC(0-inf) / Cmax / Tmax / clearance / half-life / MRT inf: male, SD, plasma; for MRT inf: read-out: MRT0-∞
Description: Six SPF SD rats, male, weighing 180-220 g, were randomly divided into 2 groups with 3 rats in each group. The compounds of the present disclosure were administered by oral gavage (PO) and intravenous injection (IV), respectively, and the assay compounds were formulated with a vehicle (5% DMSO+10% Solutol+85% pH 4.65 Acetate buffer).
Dosage: 1 mg/kg for intravenous injection and 2 mg/kg for oral administration.
(§1) Dosing volume: 5 mL/kg for intravenous injection and 10 mL/kg for oral administration.
(§2) The oral administration group was fasted overnight (10-14 h) before the assay, and drank water freely. After 4 hours of administration, they were fed uniformly. They were weighed before administration, and the dosage was calculated according to the body weight.
Intravenous administration: 0.083, 0.25, 0.5, 1, 2, 4, 6, 8, 10 and 24 h after administration;
Oral gavage administration: 0.25, 0.5, 1, 2, 4, 6, 8, 10, 12 and 24 h after administration;
(§3) Blood was collected from the jugular vein of rats at the above set time points, about 0.2 mL each time. The blood was anticoagulated with heparin sodium, placed on ice after collection, and centrifuged within 1 hour to separate the plasma (centrifugation conditions: 6800 g, 6 minutes, 2-8° C.). Plasma samples were stored in a −80° C. freezer prior to analysis.
The concentration of each compound in rat plasma was determined by LC/MS/MS method.
(§4) Through the plasma drug concentration data at different time points, pharmacokinetic parameters were calculated using Phoenix WinNonlin 7.0, thereby providing parameters such as AUC0-t, AUC0-∞, MRT0-∞, Cmax, Tmax, and T1/2 and mean and standard deviation thereof.

[4] = system: WSU-DLCL2 cells; assay: Cell proliferation assay, WSU-DLCL2; type: cell-based; details: Homo sapiens, WSUDLCL2; WSU-DLCL2 cells, cultured to the 9th day; read-out: Anti-proliferation IC50
Description: (§5) Human B-cell non-Hodgkin's lymphoma cells WSU-DLCL2, Karpas422 and Pfeiffer were cultured in cell culture flasks in a sterile incubator with 95% relative humidity and 5% CO2 at 37° C. The medium was RPMI-1640 (Gibco, product No. 31800022) containing 15% fetal bovine serum (FBS, Gibco, product No. 10099141) and 0.1% penicillin/streptomycin solution (P/S). In order to assay the effects of compounds on cell proliferation, cells in exponential growth phase were seeded into a 12-well plate (Nunc, product No. 150628) with 1 mL of medium per well, wherein WSU-DLCL2 and Karpas422 were seeded at a density of 1×10^5 cells/well, and Pfeiffer was seeded at a density of 2×10^5 cells/well. At the same time, different concentrations of compounds were added to the wells that had seeded with cells (6 concentrations were set for each compound at 3-fold serial dilution), and the final concentration of DMSO was 0.1%. After that, the number of viable cells was determined by Vi-CELL (Beckman Coulter) for WSU-DLCL2 and Pfeiffer every 3 days, and for Karpas422 on days 4, 7, and 11, respectively. The cells counted each time were seeded into a new 12-well plate at the same density, and supplemented with fresh medium to 1 mL. Different concentrations of compounds were added at the same time. WSU-DLCL2 and Pfeiffer were cultured to the 9th day, and Karpas422 was cultured to the 14th day. Cell data were collected uniformly, and analyzed with GraphPad prisim5. Dose curves were fitted, and IC50 values of the assay compounds were obtained.

[5] = system: Pfeiffer cells; assay: Cell proliferation assay, Pfeiffer; type: cell-based; details: Homo sapiens, cultured to the 9th day, read-out: Anti-proliferation IC50
Description: as §5

[6] = Pharmacokinetic study in canine; type: in vivo, Beagle dogs; details: Beagle dog; for AUC(0-inf) / Cmax / Tmax / clearance / half-life / MRT inf: male, plasma; for MRT inf: read-out: MRT0-∞
Description: Six ordinary Beagle dogs, male, weighing 10-12 kg, were randomly divided into 2 groups with 3 dogs in each group. The compounds of the present disclosure were administered by oral gavage (PO) and intravenous injection (IV), respectively, and the assay compounds were formulated with the corresponding vehicles.
Dosage: 1 mg/kg for intravenous injection and 5 mg/kg for oral administration.
as §1
as §2, with “weight. 2. Blood collection time point and sample processing:” for “weight.”
Intravenous administration: 0.083, 0.25, 0.5, 1, 2, 4, 8, 12 and 24 h after administration;
Oral gavage administration: 0.25, 0.5, 1, 2, 4, 6, 8, 12 and 24 h after administration;
as §3, with “veins” for “jugular vein”, “extremities,” for “rats at the above set time points,”, “0.5-1” for “0.2”
The concentration of each compound in canine plasma was determined by LC/MS/MS method.
as §4

[7] = system: Karpas422 cells; assay: Cell proliferation assay, Karpas422; type: cell-based; details: Homo sapiens, KARPAS-422; Karpas422 cells, cultured to the 14th day; read-out: Anti-proliferation IC50
Description: as §5

Row | IC50 [1] | AUC(0-inf) ([3]; IV, 1 mg/kg) | Cmax ([3]; IV, 1 mg/kg) | Tmax ([3]; IV, 1 mg/kg) | clearance ([3]; IV, 1 mg/kg) | half-life ([3]; IV, 1 mg/kg) | MRT inf ([3]; IV, 1 mg/kg) | AUC(0-inf) ([3]; PO, 2 mg/kg) | Cmax ([3]; PO, 2 mg/kg) | Tmax ([3]; PO, 2 mg/kg) | half-life ([3]; PO, 2 mg/kg) | MRT inf ([3]; PO, 2 mg/kg) | F ([3]; PO, 2 mg/kg) | SMILES | tumor growth inhibition (TGI %), Day 11 after administration ([2]; 30 mg/kg) | tumor growth inhibition (TGI %), Day 21 after administration ([2]; 30 mg/kg) | tumor growth inhibition (TGI %), Day 11 after administration ([2]; 100 mg/kg) | tumor growth inhibition (TGI %), Day 21 after administration ([2]; 100 mg/kg) | effect on tumor growth (FIG. 1) [2] | IC50 [4] | IC50 [5] | other results
1 | 13 nM | 639 ng·h/mL | 794 ng/mL | 0.08 h | 26.4 mL/min/kg | 1.17 h | 1.06 h | 628 ng·h/mL | 119 ng/mL | 2.83 h | 1.46 h | 3.51 h | 48.40% | CN(C(=O)C1CC1)c1cnc(NCc2c(F)ccc3c2CCO3)n2cnnc12 [HJM-045] | 0.25% | 60.06% | 10.7% | 81.43% | complete tumor disappearance | 9.2 nM | 10.5 nM | F ([6]; PO, 5 mg/kg): 90.95%; AUC(0-inf) ([6]; IV, 1 mg/kg): 4500 ng·h/mL; Cmax ([6]; IV, 1 mg/kg): 1150 ng/mL; Tmax ([6]; IV, 1 mg/kg): 0.08 h; clearance ([6]; IV, 1 mg/kg): 3.7 mL/min/kg; half-life ([6]; IV, 1 mg/kg): 4.13 h; MRT inf ([6]; IV, 1 mg/kg): 5.35 h; AUC(0-inf) ([6]; PO, 5 mg/kg): 20700 ng·h/mL; Cmax ([6]; PO, 5 mg/kg): 3700 ng/mL; Tmax ([6]; PO, 5 mg/kg): 0.5 h; half-life ([6]; PO, 5 mg/kg): 4.29 h; MRT inf ([6]; PO, 5 mg/kg): 5.75 h; IC50 [7]: 13.5 nM
2 | 52.7 nM | 1980 ng·h/mL | 1360 ng/mL | 0.08 h | 8.47 mL/min/kg | 2.7 h | 2.37 h | 3470 ng·h/mL | 586 ng/mL | 3.33 h | 2.21 h | 4.43 h | 89.41% | Fc1ccc2c(c1CNc1ncc(OCC3COC3)c3nncn13)CCO2 [HJM-104] | 39.4% | 93.29% | 88.9% | 111.9% | complete tumor disappearance | 29.6 nM | 81.6 nM | F ([6]; PO, 5 mg/kg): 102.43%; AUC(0-inf) ([6]; IV, 1 mg/kg): 3230 ng·h/mL; Cmax ([6]; IV, 1 mg/kg): 864 ng/mL; Tmax ([6]; IV, 1 mg/kg): 0.08 h; clearance ([6]; IV, 1 mg/kg): 5.9 mL/min/kg; half-life ([6]; IV, 1 mg/kg): 1.67 h; MRT inf ([6]; IV, 1 mg/kg): 2.86 h; AUC(0-inf) ([6]; PO, 5 mg/kg): 16500 ng·h/mL; Cmax ([6]; PO, 5 mg/kg): 3380 ng/mL; Tmax ([6]; PO, 5 mg/kg): 1 h; half-life ([6]; PO, 5 mg/kg): 2.09 h; MRT inf ([6]; PO, 5 mg/kg): 3.53 h; IC50 [7]: 102 nM
3 | 34.7 nM | 2060 ng·h/mL | 932 ng/mL | 0.08 h | 8.24 mL/min/kg | 2.33 h | 2.94 h | 3900 ng·h/mL | 482 ng/mL | 4 h | 2.8 h | 5.58 h | 98.86% | Fc1ccc2c(c1CNc1ncc(OC3CCOCC3)c3nncn13)CCO2 [HJM-016] | 8.5% | 56.1% | 52.3% | 105.39% | complete tumor disappearance | 86.4 nM | 55.7 nM | F ([6]; PO, 5 mg/kg): 62.50%; AUC(0-inf) ([6]; IV, 1 mg/kg): 8840 ng·h/mL; Cmax ([6]; IV, 1 mg/kg): 1220 ng/mL; Tmax ([6]; IV, 1 mg/kg): 0.08 h; clearance ([6]; IV, 1 mg/kg): 1.92 mL/min/kg; half-life ([6]; IV, 1 mg/kg): 5.87 h; MRT inf ([6]; IV, 1 mg/kg): 8.39 h; AUC(0-inf) ([6]; PO, 5 mg/kg): 27200 ng·h/mL; Cmax ([6]; PO, 5 mg/kg): 2900 ng/mL; Tmax ([6]; PO, 5 mg/kg): 2 h; half-life ([6]; PO, 5 mg/kg): 5.18 h; MRT inf ([6]; PO, 5 mg/kg): 7.97 h; IC50 [7]: 74.9 nM
